From patent US11952358B2, “Flavan-3-ol analogs and anti-inflammatory activity” (Hong Kong Baptist University, priority 2021, dated 2024)

Columns and labels:
[1] = system: RAW 264.7 cells; test: CCK8 cell viability assay; assay type: cell-based, mouse; conditions: 100 μM, 24 h
Description: (§1) RAW 264.7 cells were plated in a 96-well plate and treated with each compound (0, 25 μM, 50 μM and 100 μM) for 24 h. The viability of cells was tested by CCK8 assay. Data from three times independent experiments were expressed as means±SD. *P<0.05 compared with the control group for compound 3a-3j.
RAW 264.7 cells were plated in a 96-well plate and treated with each compound (0, 25 μM, 50 μM and 100 μM) for 24 h. The viability of cells was tested by CCK8 assay. Data from three times independent experiments were expressed as means±SD. *P<0.05 compared with the control group for compound 3k-3t.
RAW 264.7 cells were plated in a 96-well plate and treated with each compound (0, 25 μM, 50 μM and 100 μM) for 24 h. The viability of cells was tested by CCK8 assay. Data from three times independent experiments were expressed as means±SD. *P<0.05 compared with the control group for compound 3u-3ad.
as §1, with “3ae-3ag′.” for “3a-3j.”
Cell Viability Assay The CCK8 assay was used to evaluate the effect of each flavan-3-ol on the viability of RAW264.7 cells. Cells were plated into 96-well plates at a density of 2×10^5 cells/well in medium and cultured overnight. For formal experiments, cells were treated with different concentrations of flavan-3-ols (25, 50, and 100 μM). After 24 h, 20 μl CCK8 solution (cat #A311-01/02, Vazyme Biotech Co., Ltd., Nanjing, China) was added into the medium and incubated for 45 min. The absorbance was measured at 450 nm.
To evaluate the anti-inflammatory effects of these newly synthesized flavan-3-ols, RAW 264.7 cells (mouse monocyte/macrophage cell) were used as the in vitro model. First, CCK-8 (Cell Counting Kit-8) assay was performed to test the effects of these newly synthesized flavan-3-ols on cell viability (FIG. 9a-d). RAW 264.7 cells were treated with the newly synthesized flavan-3-ols ranging from 25 to 100 μM for 24 h. As shown in […], treatment with each compound at 25 and 50 μM for 24 h had no effect on the cell viability of RAW 264.7 cell. […] Therefore, the final concentration of each compound used in the following experiments were no more than 100 μM, and compound concentrations at 25 and 50 μM were used in the further experiments.

[2] = system: IL-1β; test: ELISA of IL-1β secretion from LPS-stimulated RAW 264.7 cells; assay type: cell-based, mouse; conditions: compound 50 μM 24 h, then LPS 1 μg/mL 2 h (FIG. 8)
Description: RAW 264.7 cells were pretreated with each compound (50 μM) for 24 h followed by LPS (1 μg/mL) stimulation for another 2 h. The concentrations of IL-1β in RAW 264.7 cell culture supernatants were measured by ELISA kits and the inhibition rate of compound on the secretion of each pro-inflammatory cytokine was calculated. Data from three independent experiments were expressed as means±SD. *P<0.05, **P<0.01 compared with LPS-stimulated group.
Cell culture The RAW 264.7 cell line was purchased from the Cell Bank of Shanghai Institute of Biochemistry & Cell Biology at the Chinese Academy of Sciences (Shanghai, China) and cultured in DMEM supplemented with 10% (v/v) fetal bovine serum (FBS), 100 U/ml penicillin and 100 […], in a stable environment with 5% CO2 at 37° C. Before used in the following in vitro experiments, RAW 264.7 cells were pretreated with synthesized flavan-3-ol (25, 50 μM) for 24 h followed by LPS (1 μg/mL) stimulation for another 2 h.
Enzyme-Linked Immunosorbent Assay (ELISA) RAW 264.7 cells were treated with these synthesized flavan-3-ols (25, 50 μM) for 24 h followed by LPS (1 μg/mL) stimulation for another 2 h and the culture supernatant was collected. The concentrations of IL-1β, IL-6 and TNF-α in the culture supernatant of RAW 264.7 cells were determined according to the manufacturer's instructions of the Duo-set enzyme linked immune sorbent assay kits, purchased from R&D Systems Co. Ltd. (Minneapolis, MN, USA).
The increased pro-inflammatory cytokines production in RAW 264.7 cells has been reported to play an influential role in the inflammation response. To evaluate the anti-inflammatory effects of these flavan-3-ols in vitro, ELISA kits were employed to investigate their effects on the LPS (lipopolysaccharide)-induced pro-inflammatory cytokines production of RAW 264.7 cells. After treating with the flavan-3-ols (25 and 50 μM) and stimulated by LPS, the levels of three main pro-inflammation cytokines including IL-1β ([…]), IL-6 (interleukin-6), and TNF-α (tumor necrosis factor-α) in culture supernatant from RAW 264.7 cells were measured by ELISA kits, and then the inhibition rates of the flavan-3-ols on the secretion of each pro-inflammatory cytokine were calculated by the formula shown as follows.
[formula] In this formula, “L” refers to “the pro-inflammatory cytokine level in cell culture supernatant of LPS-induced group (L)” and “Lc” refers to “the pro-inflammatory cytokine level in cell culture supernatant of compound-treated group (Lc)”. Using this calculation, the reduced levels of pro-inflammation cytokines in the compound treated group would give higher values, which reflect higher inhibition rates.
FIG. 4a-c show the effect of flavan-3-ols on pro-inflammatory cytokine secretion in vitro. RAW 264.7 cells were pretreated with each compound (25, 50 μM) for 24 h followed by LPS (1 μg/mL) stimulation for another 2 h. The concentrations of IL-1β, IL-6, TNF-α in RAW 264.7 cell culture supernatants were measured by ELISA kits and the inhibition rate of compound on the secretion of each pro-inflammatory cytokine was calculated.

[3] = system: LPS-stimulated RAW 264.7 cells; test: RNA-sequencing analysis with GO and KEGG enrichment; assay type: cell-based, mouse; conditions: for inflammation-related genes downregulated: KEGG-classified inflammation-related genes
Description: RNA-sequencing analysis RAW 264.7 cells were treated with each flavan-3-ol (25, 50 μM) for 24 h followed by LPS (1 μg/mL) stimulation for another 2 h. Cells were collected and then directly prepared for cDNAs amplification and RNA-Seq library construction. Total RNA was isolated with TRIzol reagent from each group. A complementary DNA library was prepared and sequencing was performed according to the Illumina standard protocol developed by Suzhou GENEWIZ Biological Technology Co., Ltd. (https://www.genewiz.com). […] After filtering, reference genome and gene model annotation files were downloaded from a genome website browser (NCBI/UCSC/Ensembl). Indexes of the reference genome were built using Bowtie v2.0.6 and paired-end clean reads were aligned to the reference genome using TopHat v2.0.9. Bowtie was used for a BWT (Burrows-Wheeler Transformer) algorithm for mapping reads to the genome and Tophat can generate a database of splice junctions based on the gene model annotation file and thus achieve a better mapping result than other non-splice mapping tools. For the quantification of gene expression level, HTSeq V0.6.1 was used to count the read numbers mapped for each gene. The RPKM of each gene was calculated based on the gene read counts mapped to this gene. A differential expression analysis was performed using the DESeq R package (1.10.1). For clustering, the inventors clustered different samples to see the correlation using hierarchical clustering distance method with the function of heatmap, SOM (Self-organization mapping) and k means using silhouette coefficient to adapt the optimal classification with default parameter in R. The complete RNA-seq datasets in this manuscript captioned has been deposited at GEO database (http://www.ncbi.nlm.nih.gov/geo/) under accession ID GSE181052.
Gene ontology (GO) and KEGG enrichment analysis GO enrichment analysis of differentially expressed genes was implemented by the GOseq R Package, in which gene length bias was corrected. GO analysis was performed with the DAVID online tool (https://david.ncifcrf.gov/). Top GO categories were selected according to the P-values. Pathways of differentially expressed genes were analyzed by the KEGG database (http://www.kegg.jp/kegg/). The inventors used KOBAS software to test the statistical enrichment of differential expression genes in KEGG pathways.
RNA-seq analysis of downstream genes regulated by flavan-3-ols. […] RNA-seq analysis was performed to further study the effects of compounds 3m, 3o, 3p, 3ae and 3ag on gene transcriptional pathways related to inflammation. RAW 264.7 cells were used in the RNA-seq analysis, in which cells were pretreated with each compound (50 μM) for 24 h followed by LPS (1 μg/mL) stimulation for another 2 h. […] Next, the inventors focused on genes related to inflammatory reactions and inflammation-related diseases (inflammation-related genes) based on the gene and pathway classification of Kyoto Encyclopedia of Genes and Genomes (KEGG database).
To further analyze the functional distribution of differentially-expressed genes in relation to different biological processes, cellular components and molecular functions, gene ontology (GO) enrichment analysis was performed. The histogram of GO enrichment of differentially-expressed genes was presented.
Furthermore, to determine the biochemical metabolic pathways and signal transduction pathways involved in differentially expressed genes regulated by compound 3ag, KEGG pathway analysis was then performed.

[4] = 50 μM, vs LPS-stimulated group, of a total of 1915 genes

Structure (SMILES) | melting point [°C] | effect on cell viability [1] | inhibition rate of IL-1β secretion compared with enantiomer and racemic form [2] | inflammation-related genes downregulated ([3]; 50 μM, vs LPS-stimulated group) | also measured
O[C@H]1Cc2ccccc2O[C@@H]1c1cccs1 [3n, (2S,3S)-2-(thiophen-2-yl)chroman-3-ol] | 94 to 95 | reduced viability | – | – | –
O[C@H]1Cc2cc(Cl)cc(Cl)c2O[C@@H]1c1ccccc1 [3ag, (2R,3S)-6,8-dichloro-2-phenylchroman-3-ol] | 126 to 127 | – | higher inhibition rates than their enantiomers | 40 genes | genes differentially regulated ([3]; 50 μM 24 h, then LPS 1 μg/mL 2 h, vs untreated LPS-stimulated group): 1098 genes; genes downregulated ([3]; 50 μM, vs LPS-stimulated group): 954 genes; genes upregulated ([3]; 50 μM, vs LPS-stimulated group): 144 genes; genes downregulated, share of genes expressed [3, 4]: 49.8%; genes upregulated, share of genes expressed [3, 4]: 7.5%; GO enrichment of downregulated genes ([3]; vs LPS-induced group (FIG. 6)): associated with inflammatory response (GO: 0006954) and cellular response to lipopolysaccharide (GO: 0071222); KEGG pathways of downregulated genes ([3]; vs LPS-induced group (FIG. 7a-b)): IL-17 signaling pathways, PI3K-Akt signaling pathway and TNF signaling pathway
O[C@H]1Cc2ccccc2O[C@@H]1c1ccco1 [3o, (2S,3S)-2-(furan-2-yl)chroman-3-ol] | 80 to 81 | – | higher inhibition rates than their enantiomers | downregulated parts of inflammation-related genes | –
O[C@H]1Cc2c(F)cc(F)cc2O[C@@H]1c1ccc(F)c(F)c1 [3ai, (2R,3S)-2-(3,4-difluorophenyl)-5,7-difluorochroman-3-ol] | – | reduced viability | – | – | –

Further lines, with some results ahead:

melting point [°C] | Structure (SMILES) | effect on cell viability [1] | inhibition rate of IL-1β secretion compared with enantiomer and racemic form [2] | inflammation-related genes downregulated ([3]; 50 μM, vs LPS-stimulated group) | also measured
114 to 115 | O[C@H]1Cc2ccccc2O[C@@H]1c1ccc(C(F)(F)F)cc1 [3i, (2R,3S)-2-(4-(trifluoromethyl)phenyl)chroman-3-ol] | reduced viability | – | – | –
141 to 142 | O[C@H]1Cc2ccccc2O[C@@H]1c1ccc2ccccc2c1 [3m, (2R,3S)-2-(naphthalen-2-yl)chroman-3-ol] | – | higher inhibition rates than their enantiomers | downregulated parts of inflammation-related genes | –
110 to 111 | O[C@H]1Cc2cc(F)ccc2O[C@@H]1c1ccccc1 [3ad, (2R,3S)-6-fluoro-2-phenylchroman-3-ol] | reduced viability | – | – | –
